One series concerns RBC. To be noted: doses of about 24 mg/50 kg; cited from earlier work.
The subject of series [1] is blood lymphocyte populations, HSCs.
From the text: Each patients pre-treatment values are connected to post-treatment values by a connecting line. CD4+ cells are also CD3+. CD8+ cells are also CD3+.
Each patient's pre-treatment values are connected to post-treatment values by a connecting line. Tregs are identified by being CD3+CD4+CD25+FoxP3+. B lymphocytes are identified by being CD3-CD19+.
Each patient's pre-treatment values are connected to post-treatment values by a connecting line. NK cells are identified by being CD3-CD16/56+. HSCs are identified by being CD34+CD38-.
Blood was drawn before drug treatment and 48 hours post-treatment for CBC analysis and flow cytometry to determine lymphocyte and other blood cell populations. […] For one patient, pre-treatment CBCs were not drawn and thus normalized flow cytometry data is shown for only 3 patients.
For series [2] the following is noted: cited from earlier work.
Series [3] concerns germinal centers in spleen. The experiment in a line: Mouse spleen germinal centers by FITC-PNA immunofluorescence.
The test system of series [4] is MOPC315 cells. The experiment in a line: Immunocompetent mouse model of multiple myeloma: preconditioning before alloHSCT or NK cells. To be noted: preconditioning before alloHSCT.
From the text: (§1) The mouse multiple myeloma MOPC315 cell line available from ATCC is tail vein inoculated to immunocompetent Balbc mice at 2×10^6 cells.
(§2) Balb/cJ (H-2d) and B10.D2 (H-2d) mice were purchased from Jackson Laboratory (Bar Harbor, Me., USA). Mice were used when they were between 10- to 14-wk-old. […] Red blood cells are lysed using sterile filtered RBC lysis buffer (eBioscience, San Diego, USA) and cells are washed, resuspended in phosphate buffered saline (PBS) containing 3% FBS, and filtered through a 70 mM nylon membrane. For CD8 T-cell depletion, the “Mouse CD8a positive selection kit” (Stem Cell, Grenoble, France) are used according to the manufacturer's EASYSEP depletion protocol. Finally, cells are suspended in 200 ml PBS for i.v. injection. Balbc mice are transplanted by i.v. tail vein injection of 1×10^7 bone marrow cells and 7×10^7 splenocytes from donor B10.D2 mice between 10 and 30 days after MOPC315 inoculation.
(§3) For allogeneic NK cell administration, fully functional NK cells are isolated from donor B10.D2 mice using commercially available kits such as the one from Miltenyi. Alternatively, mouse NK cells can be purchased from ATCC (KIL cells). The NK Cell Isolation Kit was developed for the isolation of untouched NK cells from single-cell suspensions of murine spleen. Non-NK cells, i.e. T cells, dendritic cells, B cells, granulocytes, macrophages, and erythroid cells are magnetically labeled by using a cocktail of biotin-conjugated antibodies and Anti-Biotin MicroBeads. Isolation of highly pure unlabeled NK cells is achieved by depletion of non-target cells. The kit has been optimized to give outstanding purities in C57BL/6J mice. 1×10^7 isolated NK cells are transplanted by IV tail vein injection between 10 and 30 days after MOPC315 inoculation.
In the next series the test system is IL-2, IL-15, IL-6. Format: in vivo, human. Conditions: oral 3 mg/kg dexamethasone base; 48 hours. As to the method:
(FIG. 12, FIG. 13, FIG. 14 and FIG. 15 show data from the same four human patients.)
Blood was drawn before drug treatment and 48 hours post-treatment for CBC analysis and flow cytometry to determine lymphocyte and other blood cell populations. Serum was analyzed for cytokine levels. For one patient, pre-treatment CBCs were not drawn and thus normalized flow cytometry data is shown for only 3 patients.

Series [5] deals with blood lymphocyte populations, neutrophils, RBCs, platelets. The experiment in a line: Mouse CBC and flow cytometry 48 hours after oral acute dexamethasone. Conditions: oral HED 3, 6, 9 or 12 mg/kg.
From the text: Treg lymphocytes were identified by being CD3+CD4+CD25+FoxP3+.
NK cells were identified by being CD3−CD49b+. B lymphocytes were identified by being CD3−B220+.
The subject of the next series is neutrophil function. Conditions: cited from earlier work.
Series [6] deals with peripheral blood T and B cells, germinal centers and marginal zones, plasma IL-2 and IL-15. Nature of the series: Summary statements: acute dexamethasone doses needed for in vivo NTLA effects. The source says: The effects of glucocorticoids are complex and depend on each specific glucocorticoid's affinity for the GR and mineralocorticoid receptor (MR). Additionally, there are now 9 known isoforms of the cytosolic GR and additional membrane expressed GR receptors that have been identified but which are not fully characterized. […] In general, at low doses typically used for chronic therapy, glucocorticoids have been reported to redistribute lymphocytes from the peripheral blood into the bone marrow, at medium doses glucocorticoids have been reported to cause leukocytosis thought to be a redistribution of leukocytes from the bone marrow, spleen and thymus into the peripheral blood, and at high doses glucocorticoids have a lymphotoxic action on lymphocytes by triggering apoptosis and necroptosis.

The test system of series [7] is blood lymphocytes, neutrophils, RBCs, platelets. The experiment in a line: Rat complete blood counts 48 hours after acute dexamethasone. Conditions: IV or PO 20, 40 or 80 mg/kg; for neutrophil number: all doses.
For series [8], the system named is peripheral blood lymphocytes. The experiment in a line: Repeat of Hinrichs dexamethasone dosing: peripheral blood lymphocytes by flow cytometry. It counts as in vivo. Also noted: CD3+CD4+CD25+FoxP3+ Tregs reduction / CD3+ T lymphocytes reduction / CD3+CD4+ T lymphocytes reduction / CD3+CD8_T lymphocytes reduction: concentration or dose not given beside the values. The source says: Prior studies into the use of steroids to precondition a patient prior to ACT had shown this approach to be ineffective. […] In contrast, Hinrichs discloses that pretreatment with radiation did enhance ACT tumor killing. […] However, while Hinrichs reported 99% lymphodepletion, no enhancement of ACT tumor killing was observed. In contrast, Hinrichs observed that radiation does enhance ACT tumor killing. […] In contrast, CD3+ T lymphocytes were reduced from […] live events, only a non-significant […] reduction. CD3+CD4+ T lymphocytes were reduced from 1779 to 902 live events, only a non-significant 50% reduction. CD3+CD8_T lymphocytes were reduced from 1318 to 1277 live events, only a non-significant 3% reduction. CD3+CD4+CD25+FoxP3+ Tregs were reduced from 198 to 70 live events, only a non-significant 65% reduction. And natural killer (NK) cells were reduced from 1153 to 958 live events, only a non-significant 17% reduction.

Series [9] deals with MOPC315 cells. To be noted: mouse, in vivo.
From the text: as §1, §2, §3
In series [10] the test system is multiple myeloma and other cancer cell lines. The experiment in a line: Direct tumor killing by acute dexamethasone. It counts as in vivo. Conditions: about 1.6 mg/kg HED in a 48 hour period. The source says:
The desired in vivo effects of exemplary NTLAs would include reductions in germinal center and marginal zones in secondary lymphatics, direct tumor killing of some cancers particularly; multiple myeloma, renal cell carcinoma, leukemia and lymphoma, non-small cell lung cancer (NSCLC), prostate and breast cancer; depletion of all peripheral blood lymphocyte types, lack of lymphocyte redistribution to the BM or other organs, and elevation of plasma cytokines including IL-2, and/or IL-7, and/or IL-12, and/or IL-15 to levels preferably of 20 pg/ml or greater, among others.

Series [11] relates to spleen weights, germinal centers. To be noted: po daily for 13 weeks, mice; cited from earlier work.
For series [12] the following is noted: cited from earlier work. The source holds these as a separate data set.
The test system of the next series is germinal centers. To be noted: 1 to 4 weeks of daily dosing; up to about 10 mgs/kg/day; cited from earlier work.
Another series has as its system Tregs. To be noted: in vivo; cited from earlier work.
Setting [13] is: Hinrichs dosing, non-significant.

Entries after “also recorded” stand apart in the source; their conditions may differ. Read-outs that look alike come from different tables or passages of the source.

Regarding `C[C@H]1C[C@H]2[C@@H]3CCC4=CC(=O)C=C[C@]4(C)[C@@]3(F)[C@@H](O)C[C@]2(C)[C@@]1(O)C(=O)CO` [Betamethasone], the “effect on RBC” value with RBC was “reduces RBC”.
`C[C@@H]1C[C@H]2[C@@H]3CCC4=CC(=O)C=C[C@]4(C)[C@@]3(F)[C@@H](O)C[C@]2(C)[C@@]1(O)C(=O)CO` [Dexamethasone, dexamethasone] showed a patients showing lymphocytosis in series [1] (3 mg/kg HED) of 50%. Also, the “hematopoietic stem cells (CD34+CD38-)” value in series [1] (human, in vivo, po, 3 mg/kg) is reported as “spared”. The lowest lethal dose in series [2] (healthy mice) is given as 114 mg/kg HED. Moreover, the lowest lethal dose in [2] (tumor bearing mice) is given as 43 mg/kg HED. Moreover, in series [3], the “HED at which germinal centers are reduced in mice” value is reported as no less than 3 mg/kg HED. For the same compound, the “body weights after preconditioning (in words)” value with MOPC315 cells [4] is recorded as “not reduced”. Moreover, the “patients with increased serum IL-2 and/or IL-15 levels” value with IL-2, IL-15, IL-6 came to 100%. In [5], the RBCs entry is listed as “spared”, the neutrophils entry is given as “spared” and the platelets result was “spared”. Moreover, in series [5] (dose for the value not stated), the “B lymphocytes reduction compared to placebo” value is on record as 83%, the “CD3+ T lymphocytes reduction compared to placebo” value was found to be 65%, the “CD4+ T lymphocytes reduction compared to placebo” value worked out at 75% and the “CD8+ T lymphocytes reduction compared to placebo” value was found to be 56%. In series [5] (dose for the value not stated), the “Tregs reduction compared to placebo” value came to 78%, the “absolute lymphocyte count reduction compared to placebo” value is listed as 84% and the “natural killer cells (NK) reduction compared to placebo” value is 87%. For the same compound, in series [5] (listed as Dex), the RBCs result is given as “spares”, the neutrophils result is “sparing” and the platelets result is given as “spares”. Moreover, the neutrophil function result with neutrophil function is recorded as “do not inhibit neutrophil function”. In addition, in [6] (48 hours after administration), the “acute oral dose necessary to reduce peripheral blood T and B cells” value is given as no less than 3 mg/kg. Moreover, the “return to baseline levels of peripheral blood T and B cells” value in series [6] (acute oral doses of 3 mg/kg or greater) fell in the range of 5 to 14 days after dosing. In series [6] (in vivo), the “acute dose required for lymphodepletion” value is listed as greater than 3 mg/kg HED; the “acute dose that reduces germinal centers and marginal zones in secondary lymphatics” value was no less than 6 mg/kg HED; the “dose of dexamethasone base at which plasma IL-2 and IL-15 cytokine elevations are observed” value was no less than 3 mg/kg HED. For the same compound, in [7], the Hct result is “not affected”, the HgB result is “not affected”, the RBCs result is given as “not affected” and the platelets result was “not affected”. The neutrophil number entry in series [7] is on record as “not reduced; also recorded: increased by all doses”. The neutrophil number entry in series [7] (listed as Dex) is recorded as “does not reduce”. In series [8] (setting [13]), the “CD3+ T lymphocytes reduction” value was 33%, the “CD3+CD4+ T lymphocytes reduction” value came out at 50%, the “CD3+CD4+CD25+FoxP3+ Tregs reduction” value was 65% and the “CD3+CD8_T lymphocytes reduction” value came out at 3%. Also, in series [8] (setting [13]), the “natural killer (NK) cells reduction” value was determined as 17%. Moreover, in series [8] (Hinrichs dosing, reduced from 198), the “CD3+CD4+CD25+FoxP3+ Tregs, live events” value was 70 live events. The “natural killer (NK) cells, live events” value in [8] (Hinrichs dosing, reduced from 1153) was found to be 958 live events. Moreover, in [8] (Hinrichs dosing, reduced from 1318), the “CD3+CD8_T lymphocytes, live events” value turned out to be 1277 live events. Further, the “CD3+CD4+ T lymphocytes, live events” value in series [8] (Hinrichs dosing, reduced from 1779) turned out to be 902 live events. For the same compound, the “CD3+ T lymphocytes, live events” value in series [8] (intraperitoneal 10 mg/kg (HED 0.81 mg/kg) on day −6, −4, −2, reduced from 3370) stood at 2441 live events. In addition, the “B lymphocytes reduction vs vehicle control” value in series [8] (intraperitoneal 10 mg/kg (HED 0.81 mg/kg) on day −6, −4, −2, significant) amounted to 65%. Also, in series [8] (intraperitoneal 10 mg/kg (HED 0.81 mg/kg) on day −6, −4, −2, vehicle control 10680), the “B lymphocytes (CD3-CD19+ cells) in the peripheral blood, live events by flow cytometry” value is given as 3733 live events. In addition, in the series with MOPC315 cells [9], the “toxicity compared to standard CyFlu preconditioning” value is recorded as “much less toxicity” and the “toxicity compared to standard repeat CyFlu preconditioning” value is “less toxicity”. The direct tumor killing result in [10] is “about 50%”.
On to `C[C@]12C=CC(=O)C=C1CC[C@@H]1[C@@H]2C(=O)C[C@@]2(C)[C@H]1CC[C@]2(O)C(=O)CO` [Prednisone], for which, in series [11], the “dose above which germinal centers are significantly impacted” value is recorded as “over 2.5 mg/kg” and the “dose above which spleen weights are significantly impacted” value was “over 2.5 mg/kg”. The biologic half-life entry in [12] was “about 20 hours”.
Take `C=CC[C@@H]1/C=C(\C)C[C@H](C)C[C@H](OC)[C@H]2O[C@@](O)(C(=O)C(=O)N3CCCC[C@H]3C(=O)O[C@H](/C(C)=C/[C@@H]3CC[C@@H](O)[C@H](OC)C3)[C@H](C)[C@@H](O)CC1=O)[C@H](C)C[C@@H]2OC` [Tacrolimus]: in the series on germinal centers, the “daily dosing required to reduce germinal centers” value is on record as no less than 0.48 mg/kg/day. Further, the neutrophil function entry with neutrophil function is given as “inhibits neutrophil function”.
With methylprednisone, the “effect on Tregs” value in the series with Tregs was “increases Tregs”.

The values are drawn from patent US11219628B2, “Replacement of cytotoxic preconditioning before cellular immunotherapy” (priority 2017, dated 2022).
